The assay deals with Proto-oncogene tyrosine-protein kinase Src (Homo sapiens, UniProt P12931).

pIC50: −log10 of the molar value.

The values that follow come from ChEMBL document CHEMBL2034863, “Application of MM-GB/SA and WaterMap to SRC Kinase Inhibitor Potency Prediction” (ACS Med Chem Lett, 2012).

Sequence of Proto-oncogene tyrosine-protein kinase Src (P12931 2-536 limits assumed): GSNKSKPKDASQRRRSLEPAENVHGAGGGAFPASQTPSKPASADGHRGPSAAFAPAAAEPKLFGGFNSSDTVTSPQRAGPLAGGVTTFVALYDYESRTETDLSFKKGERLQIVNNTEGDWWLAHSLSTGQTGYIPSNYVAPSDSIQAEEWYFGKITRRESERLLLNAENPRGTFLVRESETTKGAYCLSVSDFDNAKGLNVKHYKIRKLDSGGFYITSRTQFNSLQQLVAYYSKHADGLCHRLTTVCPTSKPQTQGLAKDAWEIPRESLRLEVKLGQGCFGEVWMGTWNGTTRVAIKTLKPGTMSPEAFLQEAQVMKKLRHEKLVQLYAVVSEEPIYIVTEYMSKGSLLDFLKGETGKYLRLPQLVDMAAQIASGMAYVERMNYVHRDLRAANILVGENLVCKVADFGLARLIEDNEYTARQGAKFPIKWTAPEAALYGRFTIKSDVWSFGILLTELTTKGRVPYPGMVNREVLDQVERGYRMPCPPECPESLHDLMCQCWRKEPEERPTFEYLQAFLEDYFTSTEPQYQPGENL

The term pIC50 denotes −log10 of the IC50, conventionally taken in molar units. `C=Cn1cnc2c(Nc3ccc(P(C)(C)=O)cc3)nc(N3CCC(CO)CC3)nc21`: the negative-log IC50 (pIC50) was 6.81.

In turn, `CCn1cnc2c(Nc3ccc(C(C)C)cc3)nc(C(C)C)nc21` gave a pIC50 of 6.41. The compound `C=Cn1cnc2c(Nc3ccc(P(C)(C)=O)cc3)nc(OC3CCOC3)nc21` (centres undefined) showed a pIC50 of 6.73. The value for `Cc1cccc(C)c1/C=C/n1cnc2c(Nc3ccc(P(C)(C)=O)cc3)nc(-c3ccccn3)nc21` was 7.37. `CCCP(=O)(CCC)c1ccc(Nc2nc(C(C)C)nc3c2ncn3CC)cc1`: the pIC50 is 8.41. Consider `CCn1cnc2c(Nc3ccc(P(C)(C)=O)cc3)nc(NC3CCOCC3)nc21`, for which the pIC50 is 7.39. This pIC50 lies 1.02 log units lower than the previous one. `CCCCP(=O)(CCCC)c1ccc(Nc2nc(C(C)C)nc3c2ncn3CC)cc1` had a pIC50 of 8.06. The compound `CCn1cnc2c(Nc3ccc(P(C)(C)=O)cc3)nc(C(C)C)nc21` gave a pIC50 of 7.60. In turn, `C=Cn1cnc2c(Nc3ccc(P(C)(C)=O)cc3)ncnc21` showed a pIC50 of 6.00.
